“Also recorded” adds a separate entry of the source. Where two headings read alike, the source gives them in different places. Where a SMILES comes first, the peptide text is derived from it. Bridges are numbered along the chain shown (N, C = ends). [ ]: non-standard residue; d: D form. d2Nal = N[C@H](Cc1ccc2ccccc2c1)C(=O)O; Nle = CCCC[C@H](N)C(=O)O; Ahx = NCCCCCC(=O)O; βAla = NCCC(=O)O
Tests used:
[1] = target: T1, mu opioid receptor (MOR) (Rattus norvegicus, UniProt P33535); test: Competitive radioligand binding, [3H]DAMGO, rat brain homogenate; conditions: for IC50: [3H]DAMGO, rat brain homogenate, three determinations in duplicate, read-out: Affinity MOR IC50 ± SD; for Selectivity MOR/DOR: calculated as ratio of IC50 values
T1 construct: The determinations for opioid receptors were performed in rat brain homogenates; from tissue; host or cells: rat brain homogenate (membrane fraction)
T1 sequence (P33535 whole entry): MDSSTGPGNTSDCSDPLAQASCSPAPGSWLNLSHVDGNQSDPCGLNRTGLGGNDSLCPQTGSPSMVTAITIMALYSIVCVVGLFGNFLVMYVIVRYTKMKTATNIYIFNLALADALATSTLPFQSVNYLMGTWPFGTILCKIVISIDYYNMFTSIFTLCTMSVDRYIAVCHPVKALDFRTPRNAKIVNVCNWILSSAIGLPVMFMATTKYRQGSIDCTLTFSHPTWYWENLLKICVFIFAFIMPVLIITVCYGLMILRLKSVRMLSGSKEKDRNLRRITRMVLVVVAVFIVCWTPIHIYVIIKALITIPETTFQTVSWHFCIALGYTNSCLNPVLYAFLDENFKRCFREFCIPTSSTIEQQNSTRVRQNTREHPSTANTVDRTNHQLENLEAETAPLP
Protocol: (§1) The determinations for opioid receptors were performed in rat brain homogenates by competitive displacement using selective radioligands, namely [^3H]DAMGO (a radioligand specific for MOR) and [^3H][Ile^5,6]DELT II (a radioligand specific for DOR). The measurement for melanocortin receptor MC4 was performed with the use of HEK293 MC4R cells and [^125I]-NDP-α-MSH radioligand.
(§2) The binding affinity of peptidomimetics 1–9 and reference compoundsTyr-D-Ala-Gly-Phe-NH2 for MOR and DOR was determined in competitive radioligand binding assays according to the method previously described. The specific radioligands were [^3H]DAMGO (DAMGO (a specific MOR ligand) and [^3H][Ile^5,6]DELT II]) (a specific DOR ligand). Membrane fractions of rat brain homogenate were incubated at 25 °C for 60 min in the presence of radioligands (0.5 nM) specific for each receptor and the increasing concentrations of the tested compounds. For measuring non-specific binding, 10 μM naloxone was used as the competitor for opioid receptors. The reactions were carried out in assay buffer containing Tris-HCl (pH 7.4) with an addition of bovine serum albumin (BSA) and protease inhibitors (bacitracin, bestatin, captopril). After the incubation, the binding reactions were terminated by rapid filtration with M-24 Cell Harvester (Brandel/USA) through GF/B Whatman glass fiber strips (pre-soaked with 0.5% PEI in order to minimize non-specific binding). Radioactivity retained on the filters was measured in MicroBeta LS, Trilux scintillation counter (PerkinElmer, USA). The experiments were repeated at least three times in duplicate. The IC50 value for each compound was determined using GraphPad Prism.

[2] = target: T2, delta opioid receptor (DOR) (Rattus norvegicus, UniProt P33533); test: Competitive radioligand binding, [3H][Ile5,6]DELT II, rat brain homogenate; conditions: three determinations in duplicate, read-out: Affinity DOR IC50 ± SD
T2 construct: The determinations for opioid receptors were performed in rat brain homogenates; from tissue; host or cells: rat brain homogenate (membrane fraction)
T2 sequence (P33533 whole entry): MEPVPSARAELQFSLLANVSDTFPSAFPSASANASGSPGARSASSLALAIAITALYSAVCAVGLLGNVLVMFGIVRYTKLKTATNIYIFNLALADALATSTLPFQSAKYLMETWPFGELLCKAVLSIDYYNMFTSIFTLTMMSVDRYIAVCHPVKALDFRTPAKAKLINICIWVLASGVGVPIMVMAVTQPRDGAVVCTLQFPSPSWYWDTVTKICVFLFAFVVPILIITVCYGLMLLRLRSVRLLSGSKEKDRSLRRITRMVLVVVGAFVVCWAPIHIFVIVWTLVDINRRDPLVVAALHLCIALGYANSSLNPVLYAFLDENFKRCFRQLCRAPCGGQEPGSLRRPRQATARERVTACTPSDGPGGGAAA
Protocol: as §1, §2

[3] = target: melanocortin-4 receptor (MC4R) (Homo sapiens, UniProt P32245); test: Radioligand competitive binding, [125I]-NDP-α-MSH, HEK293 MC4R cells; conditions: for IC50: [125I]-NDP-α-MSH, HEK293 MC4R cells, average of two assays in duplicates, read-out: Affinity MC4R IC50 ± SD; for Selectivity MC4R/DOR: calculated as ratio of IC50 values
Sequence of melanocortin-4 receptor (MC4R) (P32245 whole entry): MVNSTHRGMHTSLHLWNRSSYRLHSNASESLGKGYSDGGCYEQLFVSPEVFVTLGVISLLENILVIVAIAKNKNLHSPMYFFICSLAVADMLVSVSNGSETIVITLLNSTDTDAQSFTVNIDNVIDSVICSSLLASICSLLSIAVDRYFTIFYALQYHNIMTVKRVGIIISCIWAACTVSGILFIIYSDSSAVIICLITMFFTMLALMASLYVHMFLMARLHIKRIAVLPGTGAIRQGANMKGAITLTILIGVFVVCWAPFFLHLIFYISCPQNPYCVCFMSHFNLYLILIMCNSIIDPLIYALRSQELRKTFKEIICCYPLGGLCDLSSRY
Protocol: as §1
HEK293 MC4R were cultured in Earle’s Minimum Essential Medium (EMEM) supplemented with 10% heat inactivated fetal bovine serum (FBS). Cultures were grown under the humidified atmosphere of 5% CO2 in the air at 37 °C, up to 80% settlement of the bottle surface.
HEK293 MC4R cells were seeded around 10^5 cell/well in a 24-well plates two days before the experiment. Just before experiment, cells were washed twice with 0.5 mL of binding buffer (EMEM supplemented with 25 mM HEPES buffer, 0.2% bovine serum albumin, 1 mM 1,10-phenanthroline, 0.5 mg/L leupeptin and 200 mg/L bacitracin). […] The competition between ligands was ended by gentle withdrawal of medium solution, followed by cell washing with 2 × 0.5 mL of cold binding buffer, while the attached cells were lysed using 2 × 0.5 mL of 1 M NaOH. The radioactivity of collected solutions were measured on WIZARD^2 2480 Automatic Gamma Counter (PerkinElmer, Boston, MA, USA) in measurements with decay correlation protocol. All binding parameters were determined using GraphPad Prism Software (GraphPad Software Inc., San Diego, CA, USA). The competition assay determination was based on the normalized dose response in function of logarithm of inhibitor concentration (with variable slope) equation. All the EC50 values were calculated as an average of two separate competition assays performed in duplicates.

[4] = Experimental lipophilicity (P, log P); format: physicochemical
Source text: We also studied experimentally the lipophilicity of the compounds 1–4. The obtained logP values vary only moderately (in the range −2.30 to −2.92, Table S2) and cannot account for the large differences in the antinociceptive activity. It seems then that the lipophilicity is not a factor responsible for the in vivo activity differences.

[5] = test system: naive mice (acute pain); test: Tail-flick test in naive mice (acute pain model); format: in vivo; conditions: for ED50 (CL) Naive Mice (Acute Pain) Tail-Flick: i.t. administration, 95% confidence limits; for analgesic effect in naive mice (acute pain), in words / ED50 Naive Mice (Acute Pain) Tail-Flick, class symbol: i.t.
Protocol: (§3) The antinociceptive properties of the peptidomimetics 1–9 were assessed in two types of pain models. The first one included naive mice (acute pain), and the second one included mice exposed to chronic constriction injury (CCI, neuropathic pain model). In the latter of the models, two types of stimuli (mechanical pressure and low temperature) were considered. […] In naive mice, the tail-flick test was used to evaluate the analgesic effect (acute pain model). In CCI-exposed mice, hypersensitivity to mechanical and thermal stimuli was measured by von Frey and cold-plate tests, respectively.
The tail-flick test was performed with use of Tail-Flick Analgesic Meter (Ugo Basile, Comerio, Italy) to evaluate the pain threshold to a thermal stimulus. During the procedure, an animal was placed on the apparatus surface and gently held by the experimenter. A beam of light was focused on a dorsal tail surface, approximately at 1 cm from the tail tip. When the animal flicked its tail, the timer stopped, and the recorded time (latency) was measured. The cut-off time to protect tissue damage was 9 s.
(§4) The behavioral data are presented as the percentage of the maximal possible antinociceptive effect (% MPE ± SEM), which was calculated according to the following equation: % MPE = [(TL − BL)/(CUT-OFF − BL)] × 100%, where BL is the baseline latency, and TL is the latency obtained after drug injection. The results of the experiments were statistically evaluated using one-way analysis of variance (ANOVA). The differences between the treatment groups throughout the study were further analyzed with Bonferroni post hoc tests. The Litchefield and Wilcoxon method was used to calculate the ED50 value (a dose necessary to produce a 50% response) with 95% confidence limits on quantal data.

[6] = test system: mice subjected to CCI (neuropathic pain); test: Von Frey test in CCI-exposed mice (neuropathic pain, allodynia); format: in vivo; conditions: for ED50 (CL) Mice Subjected to CCI (Neuropathic Pain) Von Frey (Allodynia): 7–14 days after CCI, i.t. administration, 95% confidence limits
Protocol: as §3
(§5) The surgical procedure was performed according to Bennett and Xie. Under isoflurane anesthesia, an incision was made below the mouse’s right hipbone, and the sciatic nerve was exposed. Three ligatures with 4/0 silk thread were made around the nerve distal to the sciatic notch with 1 mm spacing, until a brief twitch in the respective hind limb was observed. After 7 days of recovery, mice were tested to assess the development of neuropathic pain behavior. […] Main experiments were conducted on days 7–14 after CCI surgical procedure.
Mechanical sensitivity to non-noxious stimuli was measured by applying a set of calibrated nylon monofilaments in increasing value (0.6–6 g; Stoelting, Wood Dale, IL, USA) on a tested hind paw plantar surface, until a behavioral response was observed. Response considered as pain behavior included rapid paw withdrawal, shaking, and licking. In the von Frey test, results are expressed as pressure (g) applied with a calibrated plastic filament to the midplantar surface of the mouse’s injured hind paw (cut-off: 6 g), which elicited a foot withdrawal response.
as §4

[7] = test system: mice subjected to CCI (neuropathic pain); test: Cold plate test in CCI-exposed mice (neuropathic pain, hyperalgesia); format: in vivo; conditions: 7–14 days after CCI, i.t. administration, 95% confidence limits
Protocol: as §3, §5
Sensitivity to noxious thermal stimuli was assessed with usage of Cold/Hot Plate Analgesia Meter, (Ugo Basile, Comerio, Italy). The temperature of the plate was kept at 2 °C, and the cut-off latency was 30 s. The mice were placed on the cold plate, and the time until the hind paw was lifted was recorded, which was considered as a reaction to noxious cold stimulus.
as §4

Molecule	IC50 [1]	Selectivity MOR/DOR [1]	IC50 [2]	IC50 [3]	Selectivity MC4R/DOR [3]	logP ([4]; read-out: Lipophilicity Log P)	logP ([4]; read-out: Lipophilicity P)	ED50 (CL) Naive Mice (Acute Pain) Tail-Flick [5]	ED50 (CL) Mice Subjected to CCI (Neuropathic Pain) Von Frey (Allodynia) [6]	ED50 (CL) Mice Subjected to CCI (Neuropathic Pain) Cold Plate (Hyperalgesia) [7]	analgesic effect in naive mice (acute pain), in words [5]	analgesic effect in CCI-exposed mice, in words ([6]; CCI mice, von Frey and cold plate tests, i.t.)	ED50 Naive Mice (Acute Pain) Tail-Flick, class symbol [5]
CCCC[C@H](NC(=O)[C@@H](C)NC(=O)[C@H](Cc1ccccc1)NC(=O)CNC(=O)[C@@H](C)NC(=O)[C@@H](N)Cc1ccc(O)cc1)C(=O)N[C@H]1CC(=O)NCCCC[C@@H](C(N)=O)NC(=O)[C@H](Cc2c[nH]c3ccccc23)NC(=O)[C@H](CCCNC(=N)N)NC(=O)[C@@H](Cc2ccc3ccccc3c2)NC(=O)[C@H](Cc2c[nH]cn2)NC1=O [Compound 1, ENK-D-Ala-SHU] (H-Y[dA]GF[dA][Nle]DH[d2Nal]RWK-NH2; lactam 7-12)	69.6 ± 18.7 nM	0.2	14.5 ± 1.91 nM	0.07 ± 0.01 nM	207	-2.3 ± 0.02	-2.3	–	–	–	–	–	–
CCCC[C@H](NC(=O)CCNC(=O)[C@H](Cc1ccccc1)NC(=O)CNC(=O)[C@@H](C)NC(=O)[C@@H](N)Cc1ccc(O)cc1)C(=O)N[C@H]1CC(=O)NCCCC[C@@H](C(N)=O)NC(=O)[C@H](Cc2c[nH]c3ccccc23)NC(=O)[C@H](CCCNC(=N)N)NC(=O)[C@@H](Cc2ccc3ccccc3c2)NC(=O)[C@H](Cc2c[nH]cn2)NC1=O [Compound 2, ENK-β-Ala-SHU] (H-Y[dA]GF[βAla][Nle]DH[d2Nal]RWK-NH2; lactam 7-12)	104 ± 29.1 nM	0.2	22.8 ± 7.49 nM	0.12 ± 0.01 nM	190	-2.33 ± 0.02	-2.33	58.8 (27–128) nmol	0.04 (0.03–0.68) nmol	142 (31–654) nmol	–	–	–
CCCC[C@H](NC(=O)CCCCCNC(=O)[C@H](Cc1ccccc1)NC(=O)CNC(=O)[C@@H](C)NC(=O)[C@@H](N)Cc1ccc(O)cc1)C(=O)N[C@H]1CC(=O)NCCCC[C@@H](C(N)=O)NC(=O)[C@H](Cc2c[nH]c3ccccc23)NC(=O)[C@H](CCCNC(=N)N)NC(=O)[C@@H](Cc2ccc3ccccc3c2)NC(=O)[C@H](Cc2c[nH]cn2)NC1=O [Compound 3, ENK-Ahx-SHU] (H-Y[dA]GF[Ahx][Nle]DH[d2Nal]RWK-NH2; lactam 7-12)	64 ± 34.6 nM	0.7	45.4 ± 32.3 nM	1.83 ± 0.81 nM	25	-2.43 ± 0.01	-2.43	–	0.0002 (0.00005–0.001) nmol	–	–	–	–
CCCC[C@H](NC(=O)CCCCCNC(=O)CCCCCNC(=O)[C@H](Cc1ccccc1)NC(=O)CNC(=O)[C@@H](C)NC(=O)[C@@H](N)Cc1ccc(O)cc1)C(=O)N[C@H]1CC(=O)NCCCC[C@@H](C(N)=O)NC(=O)[C@H](Cc2c[nH]c3ccccc23)NC(=O)[C@H](CCCNC(=N)N)NC(=O)[C@@H](Cc2ccc3ccccc3c2)NC(=O)[C@H](Cc2c[nH]cn2)NC1=O [Compound 4, ENK-(Ahx)2-SHU] (H-Y[dA]GF[Ahx][Ahx][Nle]DH[d2Nal]RWK-NH2; lactam 8-13)	5.47 ± 1.38 nM	4.1	22.3 ± 12.7 nM	0.5 ± 0.16 nM	45	-2.92 ± 0.02	-2.92	–	0.01 (0.00002–7.8) nmol	0.1 (0.004–3.4) nmol	–	–	–
ENK-4AMB-SHU [Compound 5]	–	–	–	–	–	–	–	–	0.02 (0.005–0.5) nmol	0.16 (0.1–0.2) nmol	lack of analgesic effect	–	–
ENK-4APhAc-SHU [Compound 6]	–	–	–	–	–	–	–	42 (21–85) nmol	0.02 (0.0002–1.03) nmol	0.02 (0.0005–1.2) nmol	some analgesic activity	–	–
ENK-(Pro-Gly)2-SHU [Compound 8]	–	–	–	–	–	–	–	5 (0.4–60.3) nmol	–	–	–	any analgesic effect was not observed; also recorded: very little if any activity	–
ENK-Pro-Gly-SHU [Compound 7]	–	–	–	–	–	–	–	–	0.4 (0.3–0.6) nmol	0.16 (0.07–0.34) nmol	impossible to calculate ED50 due to weak analgesic effect and poor dose dependency	–	# (weak analgesic effects, poor dose dependency, ED50 cannot be calculated)
[Dmt^1]ENK-Ahx-SHU [Compound 9]	–	–	–	–	–	–	–	–	0.003 (0.000003–3.45) nmol	0.009 (0.005–0.01) nmol	impossible to calculate ED50 due to weak analgesic effect and poor dose dependency	–	# (weak analgesic effects, poor dose dependency, ED50 cannot be calculated)
